Like-named read-outs stand apart in the source and are kept apart here.
Assays:
[1] = biological target: T1, α-glucosidase from Saccharomyces cerevisiae (EC 3.2.1.20) (Saccharomyces cerevisiae, UniProt P53341); experiment: biochemical; details: for IC50 / inhibition at 100 µM / Inhibition rate at a concentration of 100 μM (%): p-NPG substrate; for IC50: pH 6.8, 37°C; for inhibition at 100 µM: read-out: Inhibition rate at a concentration of 100 μM (%), 100 μM compound; for Inhibition rate at a concentration of 100 μM (%): 100 μM compound; for Inhibitory activity, folds higher than acarbose: IC50 compared with acarbose
T1 construct: purchased Sigma-Aldrich
Method: Then, the inhibitory activity of compounds (3a ∼ 3v) on α-glucosidase from S. cerevisiae was investigated using p-NPG as the substrate. First, the inhibitory activities of compounds (3a ∼ 3v) were screened at a concentration of 100 μM.
The α-glucosidase inhibition of synthetic compounds was performed as previously reported methods with minor modification ([Deng et al., 2022]) which is as follows: briefly, 130 μl of phosphate buffer (10 mM, pH 6.8), 10 μl of α-glucosidase (1 U/ml), and 10 μl of test compound solution were added into the wells of a 96-well plate, followed by incubation for 10 min at 37°C. Then, 50 μl of p-NPG (1 mM) was added, and the plate was further incubated for 30 min at 37°C. Finally, the absorbance of each well was recorded at 405 nm using a microplate reader. […] The inhibition of the test compound on α-glucosidase was calculated as follows: inhibition ratio (%) = [(A− B)/A] × 100, where A is the absorbance of blank and B is the absorbance of the test compound. Each concentration was experimented four times in parallel. Half inhibitory concentration (IC50) was obtained from the fitting curve of inhibition ratio vs. test compound with different concentrations.

[2] = biological target: T1, α-glucosidase from Saccharomyces cerevisiae (EC 3.2.1.20); experiment: Kinetics mechanism analysis (enzyme activity vs enzyme concentration; Lineweaver–Burk plots); assay type: biochemical; details: for Inhibition mechanism (inhibition type): Lineweaver–Burk plot analysis; for Ki: inhibition constant from slope vs inhibitor concentration (free enzyme); for K IS: inhibition constant from vertical intercept vs inhibitor concentration (enzyme–substrate complex); for Reversibility of inhibition: plots of enzyme activity vs enzyme concentration
Method: In order to obtain the inhibition kinetics type of compounds 3d, 3f, and 3i, the Lineweaver–Burk plot analysis method was carried out with different concentrations of test compounds and substrates.
Compounds 3d, 3f, and 3i with much better α-glucosidase inhibitory activity were selected for kinetic analysis. The experiments were performed to investigate the kinetics mechanism of compounds 3d, 3f, and 3i by the previously reported method ([Xu et al., 2019]). To determine the inhibition mechanism, the final concentrations for 3d were 0, 40, 50, 60 μM, for 3f were 0, 40, 50, 60 μM, and for 3i were 0, 30, 40, 50 μM, the final substrate p-NPG concentration was 0.25 mM, and the final concentrations for α-glucosidase were 3.75 × 10^–2, 5.00 × 10^–2, 6.25 × 10^–2, and 7.50 × 10^–2 U/ml. Then, the inhibition rates were measured by the aforementioned method.
To analyze the inhibition type, the final concentrations for 3d were 0, 40, 50, and 60 μM, for 3f were 0, 40, 50, and 60 μM, and for 3i were 0, 30, 40, and 50 μM, the final α-glucosidase concentration was 5.00 × 10^–2 U/ml, and final concentrations for substrate p-NPG concentration were 0.25, 0.50, 0.75, and 1.00 mM. The inhibition rates were obtained by the aforementioned method. The inhibition type on α-glucosidase was analyzed by using Lineweaver–Burk plots of the inverse of velocities (1/v) vs. the inverse of substrate concentration 1/[S]. The K I and K IS were obtained from the slope and the vertical intercept vs. the inhibitor concentration, respectively.
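For IC50 (μM) in this document: Absorbance-based enzyme read-out, with each concentration tested in four parallel replicates.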
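For IC50 in this document: Absorbance-based enzyme read-out, with each concentration tested in four parallel replicates.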
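For Inhibition rate at a concentration of 100 μM (%) in this document: Absorbance-based enzyme read-out, with each concentration tested in four parallel replicates.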
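For Inhibitory activity, folds higher than acarbose in this document: Absorbance-based enzyme read-out, with each concentration tested in four parallel replicates.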

T1 sequence (P53341 whole entry): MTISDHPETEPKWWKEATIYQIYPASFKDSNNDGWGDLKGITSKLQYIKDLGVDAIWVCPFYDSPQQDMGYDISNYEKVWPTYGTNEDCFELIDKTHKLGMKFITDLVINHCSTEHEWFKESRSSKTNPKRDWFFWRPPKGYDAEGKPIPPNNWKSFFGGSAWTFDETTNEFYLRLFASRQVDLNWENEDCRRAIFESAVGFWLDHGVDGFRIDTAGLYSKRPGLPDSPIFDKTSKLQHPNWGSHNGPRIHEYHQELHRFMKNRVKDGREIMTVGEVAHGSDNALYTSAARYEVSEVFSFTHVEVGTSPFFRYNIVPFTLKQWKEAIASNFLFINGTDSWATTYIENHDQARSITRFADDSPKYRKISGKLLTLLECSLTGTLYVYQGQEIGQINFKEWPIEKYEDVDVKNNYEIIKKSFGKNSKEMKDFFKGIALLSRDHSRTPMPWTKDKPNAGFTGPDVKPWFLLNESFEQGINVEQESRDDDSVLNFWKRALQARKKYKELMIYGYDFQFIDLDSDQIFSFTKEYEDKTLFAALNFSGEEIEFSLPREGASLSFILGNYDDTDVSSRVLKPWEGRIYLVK

| Molecule | melting point | IC50 ([1]; IC50 (μM)) | inhibition at 100 µM [1] | Inhibition rate at a concentration of 100 μM (%) [1] | IC50 ([1]; read-out: IC50) | Inhibition mechanism (inhibition type) [2] | Ki [2] | K IS [2] | Reversibility of inhibition [2] | Inhibitory activity, folds higher than acarbose [1] |
| --- | --- | --- | --- | --- | --- | --- | --- | --- | --- | --- |
| COc1cccc(/C=C2\C(=O)Nc3ccc(F)cc32)c1 [Compound 3k, (Z)-5-Fluoro-3-(3-Methoxybenzylidene) Indolin-2-One] | 200.1 to 202.1 °C | > 100 µM | 27.2 ± 1.47% |  |  |  |  |  |  |  |
| O=C1Nc2ccc(F)cc2/C1=C/c1ccccc1Br [Compound 3g, (Z)-3-(2-Bromobenzylidene)-5-Fluoroindolin-2-One] | 194.9 to 197.1 °C | 95.68 ± 0.28 µM | ~50% | 53.71 ± 0.47% |  |  |  |  |  |  |
| (Z)-3-(3,4-Difluorobenzylidene)-5-Fluoroindolin-2-One [Compound 3p] |  |  |  | 55.89 ± 1.71% | 92.62 ± 0.45 µM |  |  |  |  |  |
| O=C1Nc2ccc(F)cc2/C1=C/c1ccc(F)cc1F [Compound 3o, (Z)-3-(2,4-Difluorobenzylidene)-5-Fluoroindolin-2-One] | 221.1 to 224.3 °C | > 100 µM | 18.8 ± 1.15% |  |  |  |  |  |  |  |
| O=C1Nc2ccc(F)cc2/C1=C/c1ccc(Br)cc1 [Compound 3i, (Z)-3-(4-Bromobenzylidene)-5-Fluoroindolin-2-One] | 249.3 to 251.6 °C | 56.87 ± 0.42 µM | ~90% | 92.86 ± 0.32% |  | Mixed type | 22.7 µM | 24.74 µM | reversible | 10 ∼ 15 folds |
| O=C1Nc2ccc(F)cc2/C1=C/c1ccc(F)cc1 [Compound 3c, (Z)-5-Fluoro-3-(4-Fluorobenzylidene) Indolin-2-One] | 217 to 219.6 °C | > 100 µM | 9.55 ± 0.13% |  |  |  |  |  |  |  |
| O=C1Nc2ccc(F)cc2/C1=C/c1ccccc1Cl [Compound 3d, (Z)-3-(2-Chlorobenzylidene)-5-Fluoroindolin-2-One] | 219.7 to 221.9 °C | 49.9 ± 1.16 µM | ~90% | 89.19 ± 0.14% |  | Mixed type | 15 µM | 453.85 µM | reversible | 10 ∼ 15 folds |
| O=C1Nc2ccc(F)cc2/C1=C/c1cccc(Br)c1 [Compound 3h, (Z)-3-(3-Bromobenzylidene)-5-Fluoroindolin-2-One] | 222.6 to 223.8 °C | > 100 µM | 31.61 ± 0.21% |  |  |  |  |  |  |  |
| COc1ccc(/C=C2\C(=O)Nc3ccc(F)cc32)cc1 [Compound 3l, (Z)-5-Fluoro-3-(4-Methoxybenzylidene) Indolin-2-One] | 358.8 to 359.9 °C | > 100 µM | 15.7 ± 0.71% |  |  |  |  |  |  |  |
| O=C1Nc2ccc(F)cc2/C1=C/c1cccc(Cl)c1 [Compound 3e, (Z)-3-(3-Chlorobenzylidene)-5-Fluoroindolin-2-One] | 237.4 to 238.9 °C | > 100 µM | 21.6 ± 0.78% |  |  |  |  |  |  |  |
| COc1ccccc1/C=C1\C(=O)Nc2ccc(F)cc21 [Compound 3j, (Z)-5-Fluoro-3-(2-Methoxybenzylidene) Indolin-2-One] | 227.1 to 227.8 °C | > 100 µM | 19.2 ± 1.21% |  |  |  |  |  |  |  |
| O=C1Nc2ccc(F)cc2/C1=C/c1ccccc1 [Compound 3q, (Z)-3-Benzylidene-5-Fluoroindolin-2-One] |  | > 100 µM | 10 ± 1.75% |  |  |  |  |  |  |  |
| O=C1Nc2ccc(F)cc2/C1=C/c1cccc(C(F)(F)F)c1 [Compound 3n, (Z)-5-Fluoro-3-[3-(Trifluoromethyl) Benzylidene] Indolin-2-One] | 199.7 to 200.5 °C | 96.78 ± 0.72 µM | ~50% | 52.79 ± 1.68% |  |  |  |  |  |  |
| O=C1Nc2ccc(F)cc2/C1=C/c1ccccc1C(F)(F)F [Compound 3m, (Z)-5-Fluoro-3-[2-(Trifluoromethyl) Benzylidene) Indolin-2-One] | 235.2 to 236.4 °C |  | 8.43 ± 1.14% |  | > 100 µM |  |  |  |  |  |
| O=C1Nc2ccc(F)cc2/C1=C/c1ccccn1 [Compound 3v, (Z)-5-Fluoro-3-(Pyridin-2-ylmethylene) Indolin-2-One] | 248.5 to 251.2 °C | > 100 µM | 3.99 ± 1.28% |  |  |  |  |  |  |  |
| O=C1Nc2ccc(F)cc2/C1=C/c1cccc(F)c1 [Compound 3b, (Z)-5-Fluoro-3-(3-Fluorobenzylidene) Indolin-2-One] | 191.4 to 192.2 °C | > 100 µM | 5.19 ± 0.79% |  |  |  |  |  |  |  |
| O=C1Nc2ccc(F)cc2/C1=C/c1ccc[nH]1 [Compound 3u, (Z)-3-[(1H-Pyrrol-2-yl)methylene]-5-Fluoroindolin-2-One] |  | > 100 µM | 3.77 ± 1.35% |  |  |  |  |  |  |  |
| O=C1Cc2cc(F)ccc2N1 [5-Fluoro-2-oxindole, 5-fluoro-2-oxindole] |  |  |  |  | 7510 µM |  |  |  |  |  |
| CSc1ccc(/C=C2\C(=O)Nc3ccc(F)cc32)cc1 [Compound 3r, (Z)-5-Fluoro-3-[4-(Methylthio) Benzylidene] Indolin-2-One] | 246.1 to 247.1 °C | 90.6 ± 1.87 µM | ~50% | 60.8 ± 1.27% |  |  |  |  |  |  |
| O=C1Nc2ccc(F)cc2/C1=C/c1ccco1 [Compound 3s, (Z)-5-Fluoro-3-(Furan-2-ylmethylene) Indolin-2-One] | 237.9 to 238.8 °C | > 100 µM | 4.49 ± 1.88% |  |  |  |  |  |  |  |
| O=C1Nc2ccc(F)cc2/C1=C/c1ccccc1F [Compound 3a, (Z)-5-Fluoro-3-(2-Fluorobenzylidene) Indolin-2-One] | 228.3 to 230.2 °C | > 100 µM | 7.29 ± 0.16% |  |  |  |  |  |  |  |
| O=C1Nc2ccc(F)cc2/C1=C/c1ccc(Cl)cc1 [Compound 3f, (Z)-3-(4-Chlorobenzylidene)-5-Fluoroindolin-2-One] | 200.6 to 202.5 °C | 35.8 ± 0.98 µM | ~90% | 90.52 ± 0.27% |  | Mixed type | 33.8 µM | 58.31 µM | reversible | 10 ∼ 15 folds |
| O=C1Nc2ccc(F)cc2/C1=C/c1cccs1 [Compound 3t, (Z)-5-Fluoro-3-(Thiophen-2-ylmethylene) Indolin-2-One] |  | > 100 µM | 5.67 ± 1.11% |  |  |  |  |  |  |  |
